According to patent US6235891A, “Glucocorticoid receptor agonist and decreased PP5” (South Alabama Medical Science Foundation, priority 1999, dated 2001):

Columns and labels:
Assay type in all cases: cell-based, human
[1] = tested on: PP5 mRNA; experiment: Northern blot analysis of PP5 mRNA expression in A549 cells; details: doses of 25 to 500 nM
Excerpt: The oligonucleotides shown in Table 1 were designed using the Genbank sequences HSSERTHRP (Genbank accession number X92121), HSRNAPPP5 (Genbank accession number X89416) and PPP5C (Genbank accession number U25174), synthesized and tested for inhibition of PP5 mRNA expression in A549 cells using a Northern blot assay. All oligonucleotides shown in Table 1 are chimeric oligonucleotides with central 2'-deoxy "gaps," which have phosphorothioate backbones, flanked on both sides by 2'-methoxyethoxy (2'-MOE) "wings" (shown in bold), which have phosphodiester backbones. All cytosines in the 2'-MOE wings are 5-methylcytosines.
In the initial screen, A549 cells were treated with oligonucleotides at a concentration of 300 nM oligonucleotide for four hours in the presence of […] lipofectin. Results were normalized and expressed as a percent of control. The effect of each oligonucleotide on levels of PP5 mRNA, expressed as approximate percent inhibition compared to control, is shown in Table 1. In this initial screen, oligonucleotides giving a reduction of PP5 mRNA of approximately 50% or greater were considered active. […] These sequences (SEQ ID NO: 1, 2, 3, 4, 6, 7 and 12, respectively, SEQ ID Nos shown in bold in Table 1) are therefore preferred.
These oligonucleotides were tested for their ability to reduce PP5 mRNA levels in A549 cells, using oligonucleotide doses of 25 to 500 nM.
The human lung tumor cell line A549 was obtained from the American Type Culture Collection (Rockville Md.) and were grown in DMEM (Gibco BRL, Gaithersburg Md.), supplemented with 10% fetal calf. Cells were seeded on 60 mm plates. When they reached 70% confluency, they were washed with DMEM and 1 ml of DMEM containing 15 μg/ml DOTMA/DOPE (Lipofectin®, GIBCO-BRL) and oligonucleotide at desired concentration was added. Duplicate dishes were used for each treatment condition. After 4 hours of treatment at 37°, cells were washed and cultured in fresh DMEM containing 10% fetal bovine serum for an additional 17 hours. Cells were then harvested and total RNA was extracted with TRIzol Reagent (GIBCO-BRL) according to manufacturer's protocol. Total RNA (20 μg) was fractionated on a 1% agarose gel containing formaldehyde, and transferred to a DURLON-UV (Stratagene) nylon membrane. Following UV crosslinking, the filters were hybridized with the appropriate protein phosphatase probe. The ^32 P-labeled human PP cDNA probes are generated with DECAPrime® DNA Labeling Kit (Ambion) according to the manufacturer's protocol. Hybridization was performed in a hybridization solution containing 50% formamide at 42° for 16 hours. This was followed by two low stringency washes (2×SSC) at room temperature and two high stringency washes (0.1×SSC/0.5% SDS) at 55° C. Hybridization signals were visualized by autoradiography, and filters were then stripped and reprobed with a ^32 P-labeled glyceraldehyde-3-phosphate dehydrogenase (GAPDH) probe to confirm equal loading. The densities of hybridization signals were measured with the NIH Image program (ImagePC).
The cells were harvested, and total RNA was extracted with TRIzol® Reagent according to the methods of the manufacturer. Total RNA (20 μg) was fractionated on 1% agarose gels containing formaldehyde and transferred to DURLON-UV nylon membranes (Stratagene). Following UV cross-linking, the filters were hybridized with a [α^32 P]probe for human PP5. The human PP5 cDNA probe was generated from the full length coding region of PP5 and [α^32 P]-dATP was labeled with DECAprime® DNA Labeling Kit according to the manufacturer's protocol. Hybridization was performed in the presence of 50% formamide, 0.1 M Pipes, 0.8 M NaCl, 5×Denhardt's solution, 100 μg/ml denatured herring sperm DNA, 1×10^6 cpm/ml [α-^32 P]-labeled probe and 10% dextran sulfate at 42° C. for 16 hours. Following hybridization, the membrane was subjected to two low stringency washes (2×SSC) at room temperature and then two high stringency washes (0.1×SSC/0.5% SDS) at 55° C. […]

[2] = tested on: A549 cells; experiment: A549 cell proliferation (viable cell counts); details: 300 nM, all 5 days
Procedure: A549 cells were treated with ISIS 15534 or its scrambled control, ISIS 15521 at a concentration of 300 nM. Each day for the next 5 days, viable cells were counted.
A549 cells were seeded in 12-well tissue culture plates at about 50% confluence in DMEM containing 10% fetal bovine serum. The next day, cells were treated with the PP5-specific antisense oligonucleotide, ISIS 15534, or its scrambled control, ISIS 15521, at a final concentration of 300 nM as described in Example 7. On each of the following 5 days, cultures from three wells of each treatment gruop were trypsinized, collected and counted. Cell viability was determined by trypan blue staining, and the results given are the mean of three independent experiments.
A549 cells were seeded in 12-well tissue culture plates at a density of 5.0×10^4 cell/dish. On the next day, the cells were treated with PP5 specific antisense oligonucleotides (ISIS 15534) or the scrambled mismatch control (ISIS 15521) at a final concentration of 300 nM as described above. On each of the next five days, the cell cultures were treated briefly with trypsin to detach the cells from the dish (three wells from each test group). The number of cells was then determined by counting using a hemacytometer. Cell viability was determined with trypan blue staining. The percentage of viable cells was calculated by dividing the number of cells excluding trypan blue by the total number of cells, and the results are reported as the mean +/- SD of data collected from three independent experiments.
The antiproliferative effect of dexamethasone correlates with the presence of wild type p53 and the expression of p21^Waf1/Cip1 mRNA. Referring to FIGS. 1A-1C, the effect of dexamethasone on cell proliferation in p53-defective T-24 human bladder carcinoma, p53-null TR9 human fibroblasts (Webster et al. 1993; Maiyar et al. 1996), and p53 wild-type A549 human lung carcinoma cells was determined by treating cells in log-phase growth with a single dose of 100 nM dexamethasone and counting the number of cells in treated (.cndot.) and untreated (.box-solid.) cultures for six consecutive days following treatment. Each point represents the mean of triplicate dishes with error bars representing SE. Under similar conditions, treatment with ISIS 15534, a potent inhibitor of PP5 gene expression, inhibited growth in A459 but not T-24 or TR9 cells (Zuo et al. 1998). Referring to FIG. 1D, a comparison of p21^Waf1/Cip1 (p21) and serum glucocorticoid inducible protein kinase (sgk) mRNA levels in p53 competent (Lanes 3, 4) and p53 deficient (Lanes 1, 2, 5, 6) cell cultures after dexamethasone treatment is shown. Cell cultures in logphase growth were treated with 100 nM dexamethasone (+) or vehicle alone as a control (-). After 24 hours total mRNA was prepared and analyzed for p21 and sgk mRNA levels by Northern analysis.

[3] = tested on: A549 cells; experiment: [3H]-thymidine incorporation (DNA synthesis) in A549 cells; details: 300 nM, all 5 days
Procedure: Cells were pulse-labeled with [^3 H]-thymidine for 5 hours at intervals over the next five days. Cells were lysed and [^3 H]-thymidine incorporation (indicative of DNA synthesis) was determined by liquid scintillation counting.
At timed intervals during the next 5 days, cells were pulse-labeled with [^3 H]-thymidine (0.5 μCi/ml) for 5 hours. […] The results given are the mean of three independent experiments.

With “ISIS 15521: mismatch (scrambled) control oligonucleotide, phosphodiester wings, phosphorothioate gap; GTGCGATCGTTGCGGTTAGC, SEQ ID NO: 14 (sugars by position and backbone not given here; phosphodiester wings, phosphorothioate gap) [reference compound]” as the substance, how does the “Inhibition of PP5 mRNA levels at any of the doses tested” value [1] read?
Its value is at most 20%.

And the “Proliferation relative to untreated control” value [2]?
Its value is “approximately equivalent to untreated control”.

What about the “[3H]-thymidine incorporation relative to untreated control” value [3] of the same substance?
The value was “approximately equivalent to untreated control”.
